# pIC50: −log10 of the molar value.
# Key:
# HSV-1 = experiment: Antiviral activity, HSV-1 in Vero cells, plaque method; type: cell-based; details: Human alphaherpesvirus 1, 20 hours, 90% inhibition of plaque formation
# Summary of the method: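 This is a virus-yield read-out. The culture medium was frozen at −80° C and thawed, and the plaques it formed were counted. It came from Vero monolayers infected with 50,000 pfu HSV-1 and then exposed to the compound for 20 h at 37° C. EC90 is the concentration inhibiting 90% of plaque formation relative to the untreated infected control.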
# HSV2 = experiment: Antiviral activity 2, plaque formation in HEL cells; type: cell-based, HSV-2; details: Human alphaherpesvirus 2, 72 h, 3 days
# Experimental: (§1) An Assay Method for Antiviral Activity 2
# (§2) The HEL cells were sowed on a 48-well plate and then cultured overnight. The culture supernatant was removed, and 100 μl of 2% FBS-DMEM containing 40 Plaque-forming units of HSV-1, HSV-2, VZV, or CMV was added. A viral solution Was removed 1 hour later, and 500 μl of 2% FBS-DMEM containing 0.5% methylcellulose comprising 50, 25, 12.5, 6.3, 3.2, or 1.6 μM of the test compound was added. In this case, a substance to which 2% FBS-DMEM containing 0.5% methylcellulose not comprising any test compound had been added was designated as a control. In the case of HSV-1, HSV-2, or VZV, incubation was carried out in the presence of 5% CO2 at 37° C. for 3 days. In the case of CMV, incubation was carried out under the same conditions for 14 days. After they were immobilized on formalin and stained with bromophenol blue, the amount of plaque formed was counted, and the ratio of plaque formation of the drug-containing reaction system relative to the control was determined. The concentration of the drug with which the ratio of plaque formation reaches 50% was calculated and determined to be IC50. Concerning HSV-1, an aciclovir-resistant thymidine kinase variant and a DNA polymerase variant were examined in addition to a general aciclovir-sensitive strain.
# Human plasma stability = type: in vitro ADME
# Experimental: An Assay Method for Human Plasma Stability Human plasma was thawed, 200 μl each thereof was placed in each cell of a 96-well plate immediately thereafter, and 4 μl of solution of each test compound in 1 mM DMF was added thereto. A microplate reader for fluorescence absorption was used to assay changes in fluorescence, and half life was determined based on the changes.
# Vero cells = experiment: Cytotoxicity, Vero cells, Alamar Blue; type: cell-based; details: 25 μM, 20 hours
# Summary of the method: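 Living-cell ratio versus untreated control was read by Alamar Blue absorbance after about 6 h of dye incubation. Before that, Vero cells had received 25 μM test compound in 2% FBS-DMEM for 20 hours at 37 °C under 5% CO2.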
# HCMV = experiment: Antiviral activity 2, plaque formation in HEL cells; type: cell-based, CMV; details: Human betaherpesvirus 5, 336 h, 14 days
# Experimental: as §1, §2
# HSV1 Sensitive strain = experiment: as above; type: cell-based, HSV-1; details: Human alphaherpesvirus 1, 72 h, 3 days
# Experimental: as §1, §2
# [1] = test system: HSV1 Thimidine kinase variant; experiment: as above; type: cell-based, HSV-1; details: Human alphaherpesvirus 1, HEL, 72 h, read-out: Antiviral activity: IC50, HSV1 Thimidine kinase variant
# Experimental: as §1, §2
# [2] = test system: HSV1 DNA polymerase variant; experiment: as above; type: cell-based, HSV-1; details: Human alphaherpesvirus 1, HEL, 72 h, read-out: Antiviral activity: IC50, HSV1 DNA polymerase variant
# Experimental: as §1, §2
# HSV-1 protease = biological target: T1, HSV-1 protease (Human herpesvirus 1, UniProt P10210); experiment: Enzymatic assay for HSV-1 protease (assembly) inhibitor, fluorescence polarization; type: biochemical; details: read-out: HSV-1 Enzyme inhibition IC50
# T1 construct: 6xHis (N); made in house; host or cells: baculovirus expression system
# T1 sequence (P10210 1-247): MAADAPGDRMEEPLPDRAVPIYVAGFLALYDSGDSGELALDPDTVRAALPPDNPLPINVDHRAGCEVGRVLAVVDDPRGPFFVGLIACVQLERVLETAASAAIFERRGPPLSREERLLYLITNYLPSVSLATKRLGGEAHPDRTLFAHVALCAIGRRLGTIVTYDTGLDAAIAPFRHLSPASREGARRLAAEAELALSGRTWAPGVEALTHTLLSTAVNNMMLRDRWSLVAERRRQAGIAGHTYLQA
# Summary of the method: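 Fluorescence polarization read-out: after avidin stop, cleavage of a biotinylated DTAF-labelled release-site peptide by recombinant N-His6 HSV-1 protease was compared with no-inhibitor wells. Enzyme and compound were preincubated 30 min, then substrate reacted 60 min, all at room temperature, pH 7.4 citrate buffer with TCEP.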
# VZV = experiment: Antiviral activity 2, plaque formation in HEL cells; type: cell-based; details: Human alphaherpesvirus 3, 72 h, 3 days
# Experimental: as §1, §2
structure (smiles),measurement,setting,value
"Cc1c(NC(=O)OC(C)(C)C)ccc2nc(N(C)[C@@H](Cc3ccccc3)C(=O)NCc3ccccn3)oc(=O)c12 [Compound No.22, [5-Methyl-2-(methyl-{2-phenyl-1S-[(pyridin-2-ylmethyl)-carbamoyl]-ethyl}-amino)-4-oxo-4H-benzo[d][1,3]oxazin-6-yl]-carbamic Acid Tert-Butyl Ester]",EC90,HSV-1,9 µM
same,pIC50,HSV2,4.78
same,half-life at 19.6 μM,Human plasma stability,3.02 h
same,Cell viability (% of control),Vero cells,66.5%
same,pIC50,HCMV,< 4.60
same,pIC50,HSV1 Sensitive strain,5.02
same,pIC50,[1],4.79
same,pIC50,[2],4.84
same,pIC50,HSV-1 protease,5.74
same,pIC50,VZV,< 4.60

# — patent US20040116420A1 (priority 2001, published 2004)
